This assay relates to pY641-STAT6 in Peripheral Blood Mononuclear Cells (PBMC). As to the kind of experiment: MSD-pSTAT-PBMC Assay (pSTAT6, IL-4 stimulated). Conditions: Homo sapiens, compound 3 hrs, then 1 ng/mL IL-4 for 10 min. It is filed as cell-based, Human. The text has this:
Cryopreserved Peripheral Blood Mononuclear Cells (PBMC) are from AllCells. Recombinant Human IL-4 and IL-6 are from Peprotech. Mouse monoclonal anti-STAT3 antibody, rabbit monoclonal anti-pY705-STAT3 antibody, rabbit monoclonal Anti-pY641-STAT6 antibody, and lysis buffer are from Cell Signaling Technology (CST). Mouse monoclonal anti-STAT6 antibody is from BioLegend. Assay plates, blocker, and anti-rabbit secondary antibody are from Meso Scale Discovery (MSD).
Cryopreserved PBMCs were thawed out and allowed to recover overnight in IMDM+10% heat-inactivated FBS prior to plating 50,000 (STAT3) or 25,000 (STAT6) cells per well in 96-well U-bottom tissue culture plates. Cells were treated with compound for 3 hrs, then stimulated with 10 ng/mL IL-6 (STAT3) or 1 ng/mL IL-4 (STAT6) for 10 min. Cells were then spun down and washed with ice-cold PBS prior to lysing the cell pellet with 1× lysis buffer (CST) with 1×HALT protease and phosphatase inhibitor cocktail (Thermo). Lysates were transferred to and incubated overnight at 4° C. with shaking in QuickPlex 96-well high bind assay plates (MSD) pre-coated overnight with 30 μL per well of 0.6 μg/mL mouse monoclonal anti-STAT3 antibody (STAT3) or 2 μg/mL mouse monoclonal anti-STAT6 antibody (STAT6) in 1×PBS, and pre-blocked for 1 hour with 3% Blocker-A (MSD). Captured protein in the assay plates were then washed and probed with 25 μL per well of 0.25 μg/ml rabbit monoclonal anti-pY705-STAT3 antibody (STAT3) or […] rabbit monoclonal Anti-pY641-STAT6 antibody (STAT6) in 1% Blocker-A for 1 hour at room temperature with shaking, then washed and probed with 25 ul per well of 1 ug/ml Sulfo-TAG Labeled Goat Anti-Rabbit Antibody (MSD) in 1% Blocker-A for 1 hour at room temperature with shaking. Assay plates were then washed and 150 μL of 1× Read Buffer-T (MSD) was added to each well prior to reading on an SQ120 MSD Plate Reader. Assay signal from each sample was subtracted by the signal from unstimulated control wells and normalized to DMSO control wells. IC50 values were calculated using Graph Pad Prism Dose-Response Nonlinear Regression with variable slope. For both pSTAT3 and pSTAT6 A=≤100 nM; B=>100-1000 nM; C=>1000-3000 nM; and D=>3 μM.
A word on the IC50: it is the point on the concentration scale where inhibition reaches its midpoint. Lower therefore signals inhibition by little substance. Turning to `CCCOC(=O)[C@H](C)NP(=O)(Oc1ccccc1)[C@H](F)c1ccc2ccc(C(=O)N[C@H]3CN(C(=O)c4noc5ccc(C)cc45)CC[C@H]4CC[C@@H](C(=O)N5C[C@H](c6ccn(C)c(=O)c6)CC56CC6)N4C3=O)cc2c1` (stereo partly drawn) [Compound 419, propyl (((S)-fluoro(7-(((5S,8S,10aR)-8-((S)-6-(1-methyl-2-oxo-1,2-dihydropyridin-4-yl)-4-azaspiro[2.4]heptane-4-carbonyl)-3-(5-methylbenzo [d]isoxazole-3-carbonyl)-6-oxodeca-hydropyrrolo [1,2-a][1,5]diazocin-5-yl)carbamoyl)naphthalen-2-yl)methyl) (phenoxy)phosphoryl)-L-alaninate], the IC50 is at most 100 nM.

In turn, `CCCOC(=O)[C@H](C)NP(=O)(Oc1ccccc1)C(F)c1ccc2ccc(C(=O)N[C@H]3CN(C(=O)c4noc5cc(OC)ccc45)CC[C@H]4CC[C@@H](C(=O)N5CCOCC5)N4C3=O)cc2c1` (stereo partly drawn) [Compound 424, propyl ((fluoro(7-(((5S,8S,10aR)-3-(6-methoxybenzo[d]isoxazole-3-carbonyl)-8-(morpholine-4-carbonyl)-6-oxodeca-hydropyrrolo [1,2-a][1,5]diazocin-5-yl)carbamoyl)naphthalen-2-yl)methyl) (phenoxy)phosphoryl)-L-alaninate] gave an IC50 of 1000 to 3000 nM.

`CCCOC(=O)[C@H](C)NP(=O)(Oc1ccccc1)C(F)c1ccc2ccc(C(=O)N[C@H]3CN(C(C)=O)CC[C@H]4CC[C@@H](C(=O)N5CCC(c6cccnc6)C5)N4C3=O)cc2c1` (stereo partly drawn) [Compound 409, propyl (((7-(((5S,8S,10aR)-3-acetyl-6-oxo-8-(3-(pyridin-3-yl)pyrrolidine-1-carbonyl)decahydropyrrolo [1,2-a] [1,5]diazocin-5-yl)carbamoyl)naphthalen-2-yl)fluoromethyl) (phenoxy)phosphoryl)-L-alaninate]: the IC50 lay within 1000 to 3000 nM.

`CCCOC(=O)[C@H](C)NP(=O)(Oc1ccccc1)C(F)c1ccc2ccc(C(=O)N[C@H]3CN(C(=O)c4noc5ccc(C)cc45)CC[C@H]4CC[C@@H](C(=O)N5CCOC(Cc6ccccc6)C5)N4C3=O)cc2c1` (stereo partly drawn) [Compound 415, propyl (((7-(((5S,8S,10aR)-8-(2-benzyl-morpholine-4-carbonyl)-3-(5-methylbenzo [d]isoxazole-3-carbonyl)-6-oxodeca-hydropyrrolo [1,2-a][1,5]diazocin-5-yl)carbamoyl)naphthalen-2-yl)fluoromethyl) (phenoxy)phosphoryl)-L-alaninate] gave an IC50 of 100 to 1000 nM.

`CCCOC(=O)[C@H](C)NP(=O)(Oc1ccccc1)C(F)c1ccc2ccc(C(=O)N[C@H]3CN(C(=O)c4noc5ccc(C)cc45)CC[C@H]4CC[C@@H](C(=O)N5C[C@@H]6C[C@H]5CO6)N4C3=O)cc2c1` (stereo partly drawn) [Compound 414, propyl (((7-(((5S,8S,10aR)-8-((1S,4S)-2-oxa-5-azabicyclo [2.2.1]heptane-5-carbonyl)-3-(5-methylbenzo [d]isoxazole-3-carbonyl)-6-oxodeca-hydropyrrolo [1,2-a][1,5]diazocin-5-yl)carbamoyl)naphthalen-2-yl)fluoromethyl) (phenoxy)phosphoryl)-L-alaninate] registered a half-maximal inhibitory concentration (IC50) of at most 100 nM.

In turn, `CCCOC(=O)[C@H](C)NP(=O)(Oc1ccccc1)C(F)c1ccc2ccc(C(=O)N[C@H]3CN(C(=O)c4noc5ccc(C)cc45)CC[C@H]4CC[C@@H](C(=O)N5CCN(S(C)(=O)=O)CC5)N4C3=O)cc2c1` (stereo partly drawn) [Compound 410, propyl ((fluoro(7-(((5S,8S,10aR)-3-(5-methylbenzo [d]isoxazole-3-carbonyl)-8-(4-(methylsulfonyl)piperazine-1-carbonyl)-6-oxodeca-hydropyrrolo [1,2-a][1,5]diazocin-5-yl)carbamoyl)naphthalen-2-yl)methyl) (phenoxy)phosphoryl)-L-alaninate] had an IC50 of 100 to 1000 nM.

The molecule `CCCOC(=O)[C@H](C)NP(=O)(Oc1ccccc1)[C@@H](F)c1ccc2ccc(C(=O)N[C@H]3CN(C(=O)c4noc5ccc(C)cc45)CC[C@H]4CC[C@@H](C(=O)N5C[C@@H](c6ccn(C)c(=O)c6)CC56CC6)N4C3=O)cc2c1` (stereo partly drawn) [Compound 420, propyl (((R)-fluoro(7-(((5S,8S,10aR)-8-((R)-6-(1-methyl-2-oxo-1,2-dihydropyridin-4-yl)-4-azaspiro[2.4]heptane-4-carbonyl)-3-(5-methylbenzo [d]isoxazole-3-carbonyl)-6-oxodeca-hydropyrrolo [1,2-a][1,5]diazocin-5-yl)carbamoyl)naphthalen-2-yl)methyl) (phenoxy)phosphoryl)-L-alaninate] came in with an IC50 of at most 100 nM.

`Cc1ccc2[nH]nc(C(=O)N3CC[C@H]4CC[C@@H](C(=O)N5CC(c6cc[nH]c(=O)c6)CC56CC6)N4C(=O)[C@@H](NC(=O)c4ccc5ccc(C(F)(F)P(=O)(OCCSC(=O)C(C)(C)C)OCCSC(=O)C(C)(C)C)cc5c4)C3)c2c1` (stereo partly drawn) [Compound 432, S,S′-((((difluoro(7 (((5S,8S,10aR)-3-(5-methyl-1H-indazole-3-carbonyl)-6-oxo-8-(6-(2-oxo-1,2-dihydro-pyridin-4-yl)-4-azaspiro [2.4]heptane-4-carbonyl)dec-ahydropyrrolo [1,2a][1,5]diazocin-5-yl)carbamoyl)naphthalen-2-yl)methyl)phosphoryl)bis(oxy))bis (ethane-2,1-diyl))bis(2,2-dimethylpro-panethioate)] showed an IC50 of at most 100 nM.

`CCCOC(=O)[C@H](C)NP(=O)(Oc1ccccc1)[C@@H](F)c1ccc2ccc(C(=O)N[C@H]3CN(C(=O)c4noc5ccc(C)cc45)CC[C@H]4CC[C@@H](C(=O)N5C[C@H](c6ccn(C)c(=O)c6)CC56CC6)N4C3=O)cc2c1` (stereo partly drawn) [Compound 421, propyl (((R)-fluoro(7-(((5S,8S,10aR)-8-((S)-6-(1-methyl-2-oxo-1,2-dihydropyridin-4-yl)-4-azaspiro [2.4]heptane-4-carbonyl)-3-(5-methylbenzo [d]isoxazole-3-carbonyl)-6-oxodeca-hydropyrrolo [1,2-a] [1,5]diazocin-5-yl)carbamoyl)naphthalen-2-yl)methyl) (phenoxy)phosphoryl)-L-alaninate] showed an IC50 of at most 100 nM.

In the case of `Cc1ccc2onc(C(=O)N3CC[C@H]4CC[C@@H](C(=O)N5C[C@H](c6ccn(C)c(=O)c6)CC56CC6)N4C(=O)[C@@H](NC(=O)c4ccc5ccc(C(F)(F)P(=O)(OCCSC(=O)CC(C)C)OCCSC(=O)CC(C)C)cc5c4)C3)c2c1` [Compound 438, S,S′-((((difluoro(7 (((5S,8S,10aR)-8-((S)-6-(1-methyl-2-oxo-1,2-dihydropyridin-4-yl)-4-azaspiro[2.4]heptane-4-carbonyl)-3-(5-methylbenzo [d]isoxazole-3-carbonyl)-6-oxodeca-hydropyrrolo [1,2-a][1,5]diazocin-5-yl)carbamoyl)naphthalen-2-yl)methyl)phosphoryl)bis (oxy))bis (ethane-2,1-diyl))bis(3-methylbutane thioate)], the IC50 is at most 100 nM.

In turn, `Cc1ccc2[nH]nc(C(=O)N3CC[C@H]4CC[C@@H](C(=O)N5C[C@H](c6cc[nH]c(=O)c6)CC56CC6)N4C(=O)[C@@H](NC(=O)c4ccc5ccc(C(F)(F)P(=O)(OCCSC(=O)CC(C)C)OCCSC(=O)CC(C)C)cc5c4)C3)c2c1` [Compound 431, S,S′-((((difluoro(7-(((5S,8S,10aR)-3-(5-methyl-1H-indazole-3-carbonyl)-6-oxo-8-(6-(2-oxo-1,2-dihydropyridin-4-y1)-4-azaspiro[2.4]heptane-4-carbonyl)dec-ahydropyrrolo [1,2-a][1,5]diazocin-5-yl)carbamoyl)naphthalen-2-yl)methyl)phosphoryl)bis(oxy))bis(ethane-2,1-diyl)) bis(3-methylbutane thioate)] displayed an IC50 of at most 100 nM.

In the case of `CCCOC(=O)[C@H](C)NP(=O)(Oc1ccccc1)[C@H](F)c1ccc2ccc(C(=O)N[C@H]3CN(C(=O)c4noc5ccc(C)cc45)CC[C@H]4CC[C@@H](C(=O)N5C[C@@H](c6ccn(C)c(=O)c6)CC56CC6)N4C3=O)cc2c1` (stereo partly drawn) [Compound 417, propyl (((S)-fluoro(7-(((5S,8S,10a R)-8-((R)-6-(1-methyl-2-oxo-1,2-dihydro-pyridin-4-yl)-4-azaspiro[2.4]heptane-4-carbonyl)-3-(5-methylbenzo [d]isoxazole-3-carbonyl)-6-oxodeca-hydropyrrolo [1,2-a][1,5]diazocin-5-yl)carbamoyl)naphthalen-2-yl)methyl) (phenoxy)phosphoryl)-L-alaninate], the IC50 was at most 100 nM.

(Values after patent publication US20250179103A1, “6-OXODECAHYDROPYRROLO[1,2-A][1,5]DIAZOCINE AND 6-OXODECAHYDRO-4H-PYRROLO[2,1-D][1,5]THIAZOCINE DERIVATIVES AS STAT3 AND STAT6 MODULATORS FOR THE TREATMENT OF CANCER AND INFLAMMATORY CONDITIONS” (Recludix Pharma, Inc., priority 2022, published 2025).)
